Results: US20140303164A1, “THERAPEUTIC COMPOUNDS” (Gilead Sciences, Inc., priority 2013, published 2014)

Legend:
[1] = tested on: HIV-IIIb; assay: Test A: Antiviral Assay in MT4 Cells; type: cell-based, HIV-1; settings: for inhibition at 0.2 µM / inhibition at 2 µM: Human immunodeficiency virus 1, IIIB, MT4, 120 h; for inhibition at 0.2 µM: read-out: % inhibition at 0.2 μM; for inhibition at 2 µM: read-out: % inhibition at 2 μM
Method: Test A: Antiviral Assay in MT4 Cells
MT-4 cells were next mixed with HIV-IIIb at an m.o.i of 0.003 for 1 hour, after which time 35 μL of virus/cell mixture (2000 cells) was immediately added to each well containing 40 μL of diluted compound. The plates were then incubated at 37° C. for 5 days. […] Cell lysis was carried out by incubating at room temperature for 10 min and then chemiluminescence was read.

[2] = Test B: Cytotoxicity Assay; type: cell-based; settings: human, uninfected MT-4 cells, same protocol as Test A
Method in brief: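 Uninfected MT-4 cells (2000 per well) incubated with diluted compound at 37° C. for 5 days, following the antiviral protocol without HIV-IIIb.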

Row | Compound | inhibition at 0.2 µM [1] [%] | inhibition at 2 µM [1] [%] | CC50 at 5 days [2] [µM] | Response at 0.2 μM ([1]; percent inhibition of virus-induced cell killing at 0.2 μM, comparison with previously published compounds (WO 2013/006738)) [%] | Response at 2 μM ([1]; percent inhibition of virus-induced cell killing at 2 μM, comparison with previously published compounds (WO 2013/006738)) [%]
1 | Cn1nc(O)c2cccc(-c3ccc(C#CC(C)(C)O)nc3[C@H](Cc3cc(F)cc(F)c3)NC(=O)Cn3nc(C(F)F)c4c3C(F)(F)[C@@H]3C[C@H]43)c21 [Compound 107B, 2-((3bS,4aR)-3-(difluoromethyl)-5,5-difluoro-3b,4,4a,5-tetrahydro-1H-cyclopropa[3,4]cyclopenta[1,2-c]pyrazol-1-yl)-N—((S)-2-(3,5-difluorophenyl)-1-(6-(3-hydroxy-3-methylbut-1-yn-1-yl)-3-(1-methyl-3-oxo-2,3-dihydro-1H-indazol-7-yl)pyridin-2-yl)ethyl)acetamide] | 95 | 95 | 5.3 |  | 
2 | Cn1nc(NS(C)(=O)=O)c2c(Cl)ccc(-c3ccc(C#CC(C)(C)O)nc3[C@H](Cc3cc(F)cc(F)c3)NC(=O)Cn3nc(Cl)c4c3CCCC4)c21 [Compound 126, (S)—N-(1-(3-(4 chloro-1-methyl-3-(methylsulfonamido)-1H-indazol-7-yl)-6-(3-hydroxy-3-methylbut-1-yn-1-yl)pyridin-2-yl)-2-(3,5-difluorophenyl)ethyl)-2-(3-chloro-4,5,6,7-tetrahydro-1H-indazol-1-yl)acetamide] | 92 | 92 | 15.5 |  | 
3 | Cn1nc(NS(C)(=O)=O)c2c(Cl)ccc(-c3ccc(C#CC(C)(C)O)nc3[C@H](Cc3cccc(F)c3)NC(=O)Cn3nc(C(F)F)c4c3C(F)(F)[C@@H]3C[C@H]43)c21 [Compound 188, N—((S)-1-(3-(4-chloro-1-methyl-3-(methylsulfonamido)-1H-indazol-7-yl)-6-(3-hydroxy-3-methylbut-1-yn-1-yl)pyridin-2-yl)-2-(3-fluorophenyl)ethyl)-2-((3b-S,4aR)-3-(difluoromethyl)-5,5-difluoro-3b,4,4a,5-tetrahydro-1H-cyclopropa[3,4]cyclopenta[1,2-c]pyrazol-1-yl)acetamide] | 92 | 92 | 26.3 |  | 
4 | CC(C)(O)C#Cc1ncc(-c2ccc3c(c2)C(=O)NC3)c([C@H](Cc2cc(F)cc(F)c2)NC(=O)Cn2nc(C(F)F)c3c2C(F)(F)CCC3(F)F)n1 [Compound 21H, (S)-2-(3-(difluoromethyl)-4,4,7,7-tetrafluoro-4,5,6,7-tetrahydro-1H-indazol-1-yl)-N-(2-(3,5-difluorophenyl)-1-(2-(3-hydroxy-3-methylbut-1-yn-1-yl)-5-(3-oxoisoindolin-5-yl)pyrimidin-4-yl)ethyl)acetamide] | 92 | 92 | 7.63 |  | 
5 | Cc1ccc(-c2ccc(C#CC(C)(C)C)nc2[C@H](Cc2cc(F)cc(F)c2)NC(=O)Cn2nc(C(F)F)c3c2C(F)(F)[C@@H]2C[C@H]32)c2nnc(N)n12 [Compound 116A, N—((S)-1-(3-(3-amino-5-methyl-[1,2,4]triazolo[4,3-a]pyridin-8-yl)-6-(3,3-dimethylbut-1-yn-1-yl)pyridin-2-yl)-2-(3,5-difluorophenyl)ethyl)-2-((3b-S,4aR)-3-(difluoromethyl)-5,5-difluoro-3b,4,4a,5-tetrahydro-1H-cyclopropa[3,4]cyclopenta[1,2-c]pyrazol-1-yl)acetamide] | 62 | 93 | 10.5 |  | 
6 | Cn1nc(NS(C)(=O)=O)c2c(Cl)ccc(-c3ccc(C#CC(C)(C)O)nc3[C@H](Cc3cc(F)cc(F)c3)NC(=O)Cn3nc(C#N)c4c3C(F)(F)[C@@H]3C[C@H]43)c21 [Compound 159, N—((S)-1-(3-(4-chloro-1-methyl-3-(methylsulfonamido)-1H-indazol-7-yl)-6-(3-hydroxy-3-methylbut-1-yn-1-yl)pyridin-2-yl)-2-(3,5-difluorophenyl)ethyl)-2-((3bS,4aR)-3-cyano-5,5-difluoro-3b,4,4a,5-tetrahydro-1H-cyclopropa[3,4]cyclopenta[1,2-c]pyrazol-1-yl)acetamide] | 95 | 95 | 27.4 |  | 
7 | CC(C)(O)C#Cc1ccc(-c2ccc(F)c(C(N)=O)c2)c([C@H](Cc2cc(F)cc(F)c2)NC(=O)Cn2nc(C(F)F)c3c2C(F)(F)CCC3(F)F)n1 [Compound 28, (S)-5-(2-(1-(2-(3 (difluoromethyl)-4,4,7,7-tetrafluoro-4,5,6,7-tetrahydro-1H-indazol-1-yl)acetamido)-2-(3,5-difluorophenyl)ethyl)-6-(3-hydroxy-3-methylbut-1-yn-1-yl)pyridin-3-yl)-2-fluorobenzamide] |  |  | 12.2 | 71 | 84
8 | COC(=O)Nc1nn(C)c2c(-c3ccc(C#CC(C)(C)O)nc3[C@H](Cc3cc(F)cc(F)c3)NC(=O)Cn3nc(C(F)F)c4c3C(F)(F)[C@@H]3C[C@H]43)ccc(Cl)c12 [Compound 90D, methyl (4-chloro-7-(2-((S)-1-(2-((3b-S,4aR)-3-(difluoromethyl)-5,5-difluoro-3b,4,4a,5-tetrahydro-1H-cyclopropa[3,4]cyclopenta[1,2-c]pyrazol-1-yl)acetamido)-2-(3,5-difluorophenyl)ethyl)-6-(3-hydroxy-3-methylbut-1-yn-1-yl)pyridin-3-yl)-1-methyl-1H-indazol-3-yl)carbamate] | 97 | 97 | 7.62 |  | 
9 | Cn1nc(NC(=O)C2CC2)c2c(Cl)ccc(-c3ccc(C#CC(C)(C)O)nc3[C@H](Cc3cc(F)cc(F)c3)NC(=O)Cn3nc(C(F)F)c4c3C(F)(F)[C@@H]3C[C@H]43)c21 [Compound 86, N-(4-chloro-7-(2-((S)-1-(2-((3b-S,4aR)-3-(difluoromethyl)-5,5-difluoro-3b,4,4a,5-tetrahydro-1H-cyclopropa[3,4]cyclopenta[1,2-c]pyrazol-1-yl)acetamido)-2-(3,5-difluorophenyl)ethyl)-6-(3-hydroxy-3-methylbut-1-yn-1-yl)pyridin-3-yl)-1-methyl-1H-indazol-3-yl)cyclopropanecarboxamide] | 99 | 99 | 6.47 |  | 
10 | CC(C)(O)C#Cc1ccc(-c2cccn3c(C(F)F)nnc23)c([C@H](Cc2cc(F)cc(F)c2)NC(=O)Cn2nc(C(F)F)c3c2C(F)(F)[C@@H]2C[C@H]32)n1 [Compound 138, 2-((3b-S,4aR)-3-(difluoromethyl)-5,5-difluoro-3b,4,4a,5-tetrahydro-1H-cyclopropa[3,4]cyclopenta[1,2-c]pyrazol-1-yl)-N—((S)-1-(3-(3-(difluoromethyl)-[1,2,4]triazolo[4,3-a]pyridin-8-yl)-6-(3-hydroxy-3-methylbut-1-yn-1-yl)pyridin-2-yl)-2-(3,5-difluorophenyl)ethyl)acetamide] | 61 | 83 | 33.4 |  | 
11 | Cn1nc(NS(C)(=O)=O)c2c(Cl)ccc(-c3cc(-c4ccccc4)cnc3[C@H](Cc3cc(F)cc(F)c3)NC(=O)Cn3nc(C(F)F)c4c3C(F)(F)[C@@H]3C[C@H]43)c21 [Compound 177D, N—((S)-1-(3-(4-chloro-1-methyl-3-(methylsulfonamido)-1H-indazol-7-yl)-5-phenylpyridin-2-yl)-2-(3,5-difluorophenyl)ethyl)-2-((3b-S,4aR)-3-(difluoromethyl)-5,5-difluoro-3b,4,4a,5-tetrahydro-1H-cyclopropa[3,4]cyclopenta[1,2-c]pyrazol-1-yl)acetamide] | 100 | 100 | > 53.2 |  | 
12 | Cc1nc(NS(C)(=O)=O)c2cccc(-c3ccc(C#CC(C)(C)O)nc3[C@H](Cc3cc(F)cc(F)c3)NC(=O)Cn3nc(C(F)F)c4c3C(F)(F)[C@@H]3C[C@H]43)n12 [Compound 120H, 2-((3b-S,4aR)-3-(difluoromethyl)-5,5-difluoro-3b,4,4a,5-tetrahydro-1H-cyclopropa[3,4]cyclopenta[1,2-c]pyrazol-1-yl)-N—((S)-2-(3,5-difluorophenyl)-1-(6-(3-hydroxy-3-methylbut-1-yn-1-yl)-3-(3-methyl-1-(methylsulfonamido)imidazo[1,5-a]pyridin-5-yl)pyridin-2-yl)ethyl)acetamide] | 51 | 88 | 11.7 |  | 
13 | Cn1nc(NS(C)(=O)=O)c2c(Cl)ccc(-c3ccc(C#CC(C)(C)O)nc3[C@H](Cc3cc(F)cc(F)c3)NC(=O)Cn3nc(N)c4c3C(F)(F)[C@@H]3C[C@H]43)c21 [Compound 148B, 2-((3bS,4aR)-3-amino-5,5-difluoro-3b,4,4a,5-tetrahydro-1H-cyclopropa[3,4]cyclopenta[1,2-c]pyrazol-1-yl)-N—((S)-1-(3-(4-chloro-1-methyl-3-(methylsulfonamido)-1H-indazol-7-yl)-6-(3-hydroxy-3-methylbut-1-yn-1-yl)pyridin-2-yl)-2-(3,5-difluorophenyl)ethyl)acetamide] | 83 | 83 | 23.3 |  | 
14 | COCCC(=O)Nc1nn(C)c2c(-c3ccc(C#CC(C)(C)O)nc3[C@H](Cc3cc(F)cc(F)c3)NC(=O)Cn3nc(C(F)F)c4c3C(F)(F)[C@@H]3C[C@H]43)ccc(Cl)c12 [Compound 85, N-(4-chloro-7-(2-((S)-1-(2-((3b-S,4aR)-3-(difluoromethyl)-5,5-difluoro-3b,4,4a,5-tetrahydro-1H-cyclopropa[3,4]cyclopenta[1,2-c]pyrazol-1-yl)acetamido)-2-(3,5-difluorophenyl)ethyl)-6-(3-hydroxy-3-methylbut-1-yn-1-yl)pyridin-3-yl)-1-methyl-1H-indazol-3-yl)-3-methoxypropanamide] | 96 | 96 | 7.85 |  | 
